Assays:
[1] = system: three month old male 3×TgAD mouse hippocampus; experiment: Flow cytometry of BrdU labeled cells 24 hours after subcutaneous or transdermal THP; type: in vivo
Protocol: Flow cytometry assay detected total BrdU labeled cells 24 hours following THP administration via (A) subcutaneous and (B) transdermal routes. […] BrdU (100 mg/kg) was administered by intraperitoneal injection one hour after THP administration. Transdermal gel THP dose-response for 5, 10, and 50 mg/kg (FIG. 21B) was compared to 0 mg/kg control vehicle (negative control) and subcutaneous injection of 10 mg/kg (positive control) (FIG. 21A). […] Immunoblots of proliferating cell nuclear antigen (PCNA), an S-phase marker and cyclin dependent kinase 1 (CDK1/cdc2), an M-phase marker, are shown in FIGS. 21C and 21D, respectively. Hippocampus protein expression of PCNA and CDK1/cdc2 was normalized to β-tubulin loading control and compared relative to the vehicle control by immunoblot. […] The data were analyzed by one way ANOVA followed by a t test (two samples assuming equal variance) vs. vehicle. Data are presented as the mean±SEM, n=5, *=P<0.05, and **=P<0.01.

3×TgAD and non-Tg mice = experiment: Trace eyeblink conditioning, learning and memory; type: in vivo, mouse; details: for memory performance nine days after learning trial / learning performance: 3 months; for learning performance: 10 mg/kg s.c. once
Protocol: Under deep anesthesia by intraperitoneal (i.p.) injection with ketamine (100 mg/kg i.p.) and xylazine (25 mg/kg i.p.), a 4 pin head stage (DIGI-KEY) was cemented to the skull of 3 month old male mouse with dental acrylic. The connector has four Teflon-coated stainless steel wires and one bare stainless steel wire (0.003″ bare and 0.0055″ coated, A-M Systems, Inc.). The bare wire was attached via a gold pin (Time Electronics) to the head stage. Coated wires were implanted s.c. in the orbicularis oculi dorsal to the left upper eyelid to record the EMG and s.c. periorbitally to deliver the shock US (3). All animals were then placed on a warm isothermal pad after surgery to recovery for 30 min. After surgery, mice were individually housed, provided with ad libitum access to food and water, and maintained on a 12 hr light/dark cycle.
After one week of acclimation to the colony room, mice with no obvious adverse responses to surgery were randomly assigned to an experimental condition. Mice were injected subcutaneously (s.c.) with 10 mg/kg THP or vehicle followed one hour later with an IP injection of BrdU (100 mg/kg). Following injection of test compound, mice were returned to their home cage for 7 days prior to onset of behavioral testing.
During the first day of training, mice were placed within Plexiglas cylinders in a sound-attenuated chamber and were habituated to the test environment for one session consisting of 30 stimulus-free trials at 30-60 sec inter-trial intervals while spontaneous eye-blink activity was recorded using electromyographic (EMG) activity recorded from the obicularis oculi dorsal to the orbit during each trial. EMG activity was rectified, and integrated using custom designed computational Labview routines.
Following habituation to the test environment mice underwent a learning phase and were trained for five days. Mice were trained by pairing delivery of a tone (CS, 250 msec, 2 kHz, 85 dB) as the conditioned stimulus followed by a 250 msec period of no stimuli, followed by the periobital shock as the unconditioned stimulus (US, 100 msec). Mice received two blocks of 30 trials per day (30-60-sec inter-trial intervals, 3-4-h inter-block intervals). This trace eye-blink conditioning paradigm is subthreshold for inducing neurogenesis. The unpaired group received random tone at the same magnitude as the paired conditioning and shock with 15-30 sec as inter-trial intervals and a total of 60 trials for one session per day. Shock intensity was adjusted daily for each mouse to elicit a head-movement response. Following the learning phase, mice were returned to their home cage for eight days followed on the ninth day by a single session to assess memory of the conditioned response. The percentage of CR was computed as the ratio of the number of CRs to the total number of valid trials. Animals were perfused at the end of the memory trial day.
To determine if there was a functional consequence of THP-induced neurogenesis, the impact of THP on both the learning and memory of a behavioral task shown to be dependent upon the generation of new neurons in the dentate gyrus, delayed trace conditioning was assessed. 3×TgAD and non-Tg background mice were prepared for behavioral testing and received a single s.c. injection of THP (10 mg/kg once) or vehicle 7 days prior to start of the learning trial. After injection, mice were housed for 7 days before the training process started. The rationale for the 7 day interim between exposure to THP and the start of the behavioral experiment was to allow time for the proliferation, migration and integration of newly generated neurons into the dentate gyrus.
Following the 7 day interim period, the behavioral testing commenced with a 5 day (2×30 trials/day) training learning phase to assess rate and magnitude learning performance. After the learning trial, mice were returned to their home cage for another 9 day period and subsequently tested for memory of the learned association. […]

hippocampal neural cells = experiment: 3H-thymidine uptake in cultured hippocampal neural cells; type: cell-based, rat; details: from about 0.1 nm to about 250 nm THP
Protocol: Biochemical analyses of 3H-thymidine uptake, as a measure of DNA synthesis, were used as the experimental vehicle to confirm the morphological observations described in examples 1 and 2. […] Thus, the range for the neurogenic effect of THP on neural cells is quite is sensitive and quite broad.
For these experiments, cultured hippocampal neural cells, derived from embryonic day 18 rat fetuses, were allowed to adhere to polylysine coated plastic cover-slips for 40 min in serum containing medium. Following adhesion, neurons were exposed to […] 3H-thymidine in the presence or absence of 100-500 nM THP and allowed to incubate at 37° C. for 24 hours in the absence or presence of the indicated steroids. Data are expressed as mean+SEM, *p<. 05,**p<0.01, ***p<0.001.
The time course of THP-induced 3H-thymidine incorporation in hippocampal neuronal cells is shown in FIG. 9 where cultured hippocampal nerve cells, derived from embryonic day 18 rat fetuses, were allowed to adhere to polylysine coated plastic cover-slips for 40 min in serum containing medium. Following adhesion, serum containing medium in the presence or absence of 10-250 nM THP plus […] 3H-thymidine and allowed to incubate at 37 for 1, 8 or 24 hours. Data are expressed as mean±SEM, *p<0.05,**p<0.01,***p<0.001.

CC(=O)[C@H]1CC[C@H]2[C@@H]3CC[C@H]4C[C@H](O)CC[C@]4(C)[C@H]3CC[C@]12C [THP, 3α-hydroxy-5α-pregnan-20-one]
BrdU cell numbers vs vehicle ([1]; 10 mg/kg dose): significantly increases BrdU cell numbers | optimal dose to significantly increase BrdU cell numbers ([1]; subcutaneous and transdermal routes): 10 mg/kg | memory performance nine days after learning trial (3×TgAD and non-Tg mice; 3×TgAD mice): significant increase in memory | learning performance (3×TgAD and non-Tg mice; 3×TgAD mice): significantly increased the learning performance | learning level (conditioned response) at the end of training (3×TgAD and non-Tg mice; 3×TgAD mice, 6-months-old, 10 mg/kg): 39.2±9.2% | memory test 9 days after acquisition phase (3×TgAD and non-Tg mice; 3×TgAD mice, 6 months): significantly increased the retention of the conditioned response rate | final level of learning (3×TgAD and non-Tg mice; 3×TgAD mice, 9-months-old): 23.6±4.0% | memory performance after 9 days vs vehicle (3×TgAD and non-Tg mice; 3×TgAD mice, 9-months-old): significantly better memory performance | final level of learning (3×TgAD and non-Tg mice; 3×TgAD mice, 12-months-old): 14.9±3.6% | memory deficit vs vehicle-treated non-Tg mice (3×TgAD and non-Tg mice; 3×TgAD mice, 12-months-old): not reversed | learning rate and final level of learning (3×TgAD and non-Tg mice; 3×TgAD mice, 15-month-old): did not affect the learning rate nor the final levels of learning | % CR (3×TgAD and non-Tg mice; 3×TgAD mice, memory phase): 53.96% | memory performance nine days after learning trial (3×TgAD and non-Tg mice; non-Tg mice): did not significantly augment the memory performance | learning performance (3×TgAD and non-Tg mice; non-Tg mice): did not augment the learning performance | memory retention (3×TgAD and non-Tg mice; non-Tg mice, 6 months): no effect | maximal conditioned response rate (3×TgAD and non-Tg mice; non-Tg mice, 6 months, 10 mg/kg): 30.4±7.7% | final level of learning (3×TgAD and non-Tg mice; non-Tg mice, 9-months-old): 20.6±4.1% | memory test performance (3×TgAD and non-Tg mice; non-Tg mice, 9-months-old): no significant effect | final level of learning (3×TgAD and non-Tg mice; non-Tg mice, 12-months-old): 25.4±6% | memory performance (3×TgAD and non-Tg mice; non-Tg mice, 12-months-old): modest improved memory performance which was not significantly better than vehicle-treated group | maximum level of learning (3×TgAD and non-Tg mice; non-Tg mice, 15-months-old): 29.6±5.5% | increase in 3H-thymidine uptake relative to control (hippocampal neural cells): 80%

Source: patent US11207331B2, “Agents, compositions and methods for enhancing neurological function” (University of Southern California, priority 2007, dated 2021)
